Assay results as given in US6010721A, “Glycyrrhetinic-acid-like factor” (The Miriam Hospital, priority 1996, dated 2000).
“Also recorded” adds a separate entry of the source.

Experiments:
[1] = biological target: T1, 11β-hydroxysteroid dehydrogenase (11β-OHSD) (Rattus norvegicus, UniProt P16232); experiment: Screening of endogenous substances for inhibition of 11β-OHSD (Example III); type: biochemical; conditions: endogenous substances screened
Excerpt: (§1) Various endogenous substances which bear similar structural resemblances to glycyrrhetinic acid (GA) were screened for inhibitory activity against 11β-hydroxysteroid dehydrogenase (11β-OHSD) and 5β-reductase (5β-R).

[2] = biological target: T2, 5β-reductase (5β-R) (Rattus norvegicus, UniProt P31210); experiment: Screening of endogenous substances for inhibition of 5β-reductase (Example III); type: biochemical; conditions: endogenous substances screened
T2 construct: [3H]-aldosterone reduction with NADPH
T2 sequence (P31210 1-326): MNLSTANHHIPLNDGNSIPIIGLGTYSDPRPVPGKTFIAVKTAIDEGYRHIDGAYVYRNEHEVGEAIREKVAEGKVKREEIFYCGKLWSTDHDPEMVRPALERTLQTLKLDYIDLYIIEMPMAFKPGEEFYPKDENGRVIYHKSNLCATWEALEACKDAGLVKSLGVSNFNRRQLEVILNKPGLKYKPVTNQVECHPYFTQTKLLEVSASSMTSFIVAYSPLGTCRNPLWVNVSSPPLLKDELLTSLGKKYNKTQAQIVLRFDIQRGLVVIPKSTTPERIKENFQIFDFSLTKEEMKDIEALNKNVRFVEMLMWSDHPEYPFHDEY
Excerpt: as §1

[3] = system: adrenalectomized rats; experiment: Mineralocorticoid action conferred upon corticosterone in adrenalectomized rats (Example III); type: in vivo
Protocol: 3α,5β-THDOC and bile acids were also treated to determine whether, like GA, they could confer mineralocorticoid (MC) actions upon corticosterone.

[4] = system: adrenalectomized male rats; conditions: cited from earlier work
[5] = system: steroid 5β-reductase; conditions: incubated with enzyme; cited from earlier work
[6] = biological target: T1, 11β-hydroxysteroid dehydrogenase (11β-OHSD); conditions: incubated with enzyme; cited from earlier work

T1 sequence (P16232 whole entry): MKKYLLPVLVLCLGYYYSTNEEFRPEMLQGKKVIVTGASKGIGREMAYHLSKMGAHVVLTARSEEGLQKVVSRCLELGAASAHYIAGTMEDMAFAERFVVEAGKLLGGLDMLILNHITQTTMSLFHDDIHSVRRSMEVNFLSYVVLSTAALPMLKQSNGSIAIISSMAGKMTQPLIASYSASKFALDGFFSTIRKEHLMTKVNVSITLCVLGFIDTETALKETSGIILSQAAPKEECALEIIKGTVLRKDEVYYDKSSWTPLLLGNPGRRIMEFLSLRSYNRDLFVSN

Compound | inhibition of 11β-OHSD (potency in words) [1] | inhibition of 5β-R (potency in words) [2] | other results
C[C@H](CCC(=O)O)[C@H]1CC[C@H]2[C@@H]3CC[C@@H]4C[C@H](O)CC[C@]4(C)[C@H]3C[C@H](O)[C@]12C [DCA, deoxycholic acid] | weak inhibitor | moderate inhibitor | 
C[C@H](CCC(=O)O)[C@H]1CC[C@H]2[C@@H]3[C@H](O)C[C@@H]4C[C@H](O)CC[C@]4(C)[C@H]3C[C@H](O)[C@]12C [CA, cholic acid] | moderate inhibitor | weak inhibitors | 
CCC[C@@H]1CC2=CC(=O)CC[C@]2(C)[C@H]2CC[C@@]3(C)[C@@H](CC[C@@]3(O)CCC(=O)O)[C@H]12 [RU28318, reference compound] |  |  | effect of antimineralocorticoid on the CDCA/corticosterone antinatriuresis ([3]; adrenalectomized rats, CDCA + corticosterone): blocked
CC1(C)[C@@H](OC(=O)CCC(=O)O)CC[C@]2(C)[C@H]3C(=O)C=C4[C@@H]5C[C@@](C)(C(=O)O)CC[C@]5(C)CC[C@@]4(C)[C@]3(C)CC[C@@H]12 [carbenoxolone sodium] |  |  | effect on Na^+ retaining properties of aldosterone and deoxycorticosterone [4]: amplified the Na^+ retaining properties; effect on glucocorticoids corticosterone and cortisol [4]: display minearlocorticoid like activity
C[C@H](CCC(=O)O)[C@H]1CC[C@H]2[C@@H]3CC[C@@H]4C[C@H](O)CC[C@]4(C)[C@H]3CC[C@]12C [LCA, lithocholic acid] | potent inhibitor; also recorded: inhibit both 11β-OHSD and 5β-R activity | weak inhibitors; also recorded: inhibit both 11β-OHSD and 5β-R activity | 
CC1(C)[C@@H](O)CC[C@]2(C)[C@H]3C(=O)C=C4[C@@H]5C[C@@](C)(C(=O)O)CC[C@]5(C)CC[C@@]4(C)[C@]3(C)CC[C@@H]12 [Glycyrrhetinic Acid] |  |  | inhibition of steroid 5β-reductase [5]: markedly inhibit; inhibition of 11β-OHSD [6]: markedly inhibit
C[C@H](CCC(=O)O)[C@H]1CC[C@H]2[C@@H]3[C@H](O)C[C@@H]4C[C@H](O)CC[C@]4(C)[C@H]3CC[C@]12C [CDCA, chenodeoxycholic acid] | most potent inhibitor; also recorded: inhibit both 11β-OHSD and 5β-R activity | most potent inhibitor; also recorded: inhibit both 11β-OHSD and 5β-R activity | antinatriuresis caused by corticosterone after pretreatment ([3]; adrenalectomized rats pretreated with CDCA, then corticosterone): significant antinatriuresis
C[C@]12CC[C@@H](O)C[C@H]1CC[C@@H]1[C@@H]2CC[C@]2(C)[C@@H](C(=O)CO)CC[C@@H]12 [3α,5β-THDOC, 3α,5β-tetrahydrodeoxycorticosterone] | most potent inhibitor; also recorded: inhibit both 11β-OHSD and 5β-R activity | most potent inhibitor; also recorded: inhibit both 11β-OHSD and 5β-R activity | 
